Measurements as given in EP4627105B1, “METHOD FOR IDENTIFYING A MODIFIED AMINO ACID DEGRON (MAAD)” (ETH Zurich, priority 2022, dated 2024).

Test system: K562 cells
Assay: Fluorescent in-cell reporter (FLICR) protein stability assay: turnover of C-terminally amidated sfGFP after nucleofection, followed by flow cytometry
Assay type: cell-based, human
Conditions: for destabilization of sfGFP carrying a primary amide on its C-terminus (sfGFP-Pep1-Ser-NH2): Fig. 1C, inhibitor concentration not given; for Amidated sfGFP degradation: Fig. 2G
Method: HEK293T cells were cultured in DMEM containing Glutamax (Thermo Fisher Scientific) and K562 cells were cultured in RPMI 1640 containing Glutamax (Thermo Fisher Scientific) under standard conditions. Growth media were further supplemented with 10% (v/v) Fetal Bovine Serum (Thermo Fisher Scientific) and 100 U/ml Penicillin-Streptomycin (Thermo Fisher Scientific). Stably transduced cells were selected using 2 µg/ml Puromycin (Thermo Fisher Scientific), 500 µg/ml Gene-ticin (Thermo Fisher Scientific) or 10 µg/ml Blasticidin (Thermo Fisher Scientific) starting two days after transduction. Induction of doxycycline-dependent vectors was performed using 500 ng/ml doxycycline (Merck) every 48 hours. Cells were treated with epoxomicin (Merck), concanamycin A (Merck) or TAK243 (MedChem Express) as indicated.
For measuring stability of recombinant or semi-synthetic proteins, 1.5- 2.0 x 10^5 cells were nucleofected with 200 pmol of protein in 20 µl cuvettes using a 4D nucleofector device (Lonza) according to the manufacturer's recommendations. Following protein delivery, cells were left to recover at 37°C for 30-45 minutes before measuring initial mean fluorescence intensity values (t0) on a Attune NxT Flow Cytometer (Thermo Fisher Scientific). Subsequent measurements were performed at indicated time points. Baseline-fluorescence values of mock nucleofected cells receiving no protein were measured and subtracted for each time point and baseline-corrected fluorescence values were normalized to t0.
The effect of each modification on protein degradation was measured in the human erythroleukemia cell line K562, which allows for efficient and uniform protein delivery via nucleofection.
Lastly, conjugates of mTagBFP2 and mCherry carrying a primary C-terminal amide were also efficiently degraded when delivered to human embryonic kidney-derived HEK293T cells (Fig.1D and Fig 1E) establishing that C-terminal amidation induces protein degradation in different amino acid-, protein- and cell contexts.
The effect of each modification on protein degradation in the human erythroleukemia cell line K562 was measured. A fluorescent in-cell reporter assay was performed, in which individual semi-synthetic proteins were introduced by electroporation into human cells and their clearance over time was followed by flow cytometry.
This implies that C-terminal amide-bearing proteins (CTAPs) are actively cleared from cells by the ubiquitin proteasome system. CTAP forms of both mCherry and mTagBFP2, but not their unmodified counterparts, were also efficiently degraded when delivered to human embryonic kidney-derived HEK293T cells, as shown in Fig. 2H (see also the explanations above relating to Fig. 1E). The presence of a C-terminal amide is therefore sufficient to induce protein degradation in different peptide-, protein- and cell contexts.

NS(=O)(=O)OC[C@H]1C[C@@H](Nc2ccnc3cc(-c4cccc(SC(F)(F)F)c4)nn23)[C@H](O)[C@@H]1O [TAK243]
destabilization of sfGFP carrying a primary amide on its C-terminus (sfGFP-Pep1-Ser-NH2): fully blunted
Amidated sfGFP degradation (TAK243 (1 µM) upon sfGFP delivery): prevented

CC[C@H](C)[C@H](NC(=O)[C@H]([C@@H](C)CC)N(C)C(C)=O)C(=O)N[C@H](C(=O)N[C@@H](CC(C)C)C(=O)[C@@]1(C)CO1)[C@@H](C)O [epoxomicin]
destabilization of sfGFP carrying a primary amide on its C-terminus (sfGFP-Pep1-Ser-NH2): fully blunted
Amidated sfGFP degradation (epoxomicin (500 nM) upon sfGFP delivery): prevented

C/C=C/[C@H]1O[C@@](O)([C@@H](C)[C@H](O)[C@H](C)[C@H]2OC(=O)/C(OC)=C/C(C)=C/[C@@H](C)[C@@H](O)[C@@H](CC)[C@@H](O)[C@H](C)C/C(C)=C/C=C/[C@@H]2OC)C[C@@H](O[C@H]2C[C@@H](O)[C@H](OC(N)=O)[C@@H](C)O2)[C@@H]1C [concanamycin A]
destabilization of sfGFP carrying a primary amide on its C-terminus (sfGFP-Pep1-Ser-NH2): not by inhibition of lysosomal acidification
Amidated sfGFP degradation (Folimycin (100 nM) upon sfGFP delivery): not by inhibition of lysosomal acidification
